The values below come from patent US20240085429A1, “ALTERING PROTEIN FUNCTION BY PHARMACOLOGICAL TARGETING OF MEMBRANE DOMAINS” (University of Virginia Patent Foundation, priority 2021, published 2024).

Counter-ions that a name gives are not always drawn.

Common to all, as to parameters: species or system human
In test [1] the test system is GPMVs from HeLa cells. The test is described as follows: Di4 fluorescence lifetime imaging (lipid packing in GPMVs). The settings on record: TLCK 1 μM, C6-ceramide 1 μM, MβCD 5 mM; for phase state of GPMVs in FLIM images: room temperature; for average Di4 lifetime: single-phase GPMVs (MβCD: average across all domains), control 2.53±0.06 ns, mean±SD. From the text:
It was also of interest how TLCK and C6-ceramide impact other properties of the membrane compared to treatments such as cholesterol depletion that are commonly used to disrupt rafts in cells (Zidovetzki & Levitan, 2007). To test this, we examined their effects on membrane lipid packing and fluidity using a fluorescent reporter of membrane packing, Di-4-[…] (Di4) (Jin et al., 2006; Owen et al., 2006; Sezgin et al., 2014; Levental et al., 2020b; Lorent et al., 2020). As a control, we subjected GPMVs to cholesterol depletion using 5 mM MβCD. The photophysical characteristics of Di4, including its lifetime, are dependent on lipid packing in membranes. In particular, a lower Di4 lifetime is indicative of loose packing and a more fluid membrane environment whereas higher Di4 lifetimes point to a less fluid membranes and tighter lipid packing. […] The phase separated vesicles were characterized by two populations of lifetimes, corresponding to the Lo phase (higher lifetime) and Ld phase (lower lifetime) (FIGS. 11A-11F).
GPMVs were prepared as previously described by Sezgin, E, et al., Nat Protoc 2012, 7 (6), 1042-51. In brief, HeLa cells were washed twice with GPMV buffer (2 mM CaCl2)/10 mM HEPES/0.15 M NaCl, pH 7.4), then washed twice with GPMV active buffer (GPMV buffer containing 25 mM formaldehyde and 2 mM DTT). Cells were then incubated with GPMV active buffer for 1-2 hours at 37° C. with shaking at 90-95 RPM. The GPMV-containing supernatant was decanted into a centrifuge tube and GPMVs were allowed to settle for 1 h. Aliquots of GPMVs (100 μL) were pipetted from the bottom of the Eppendorf tube into separate tubes and treated with DMSO (0.1%), 1 μM TLCK, 1 μM C6-ceramide or 5 mM MbCD. After 5 min, Di 4 […] (Di4) (Thermo Scientific) was added to a final concentration of […] from a stock solution of 1 mg/mL Di4 in ethanol. The GPMVs were then sandwiched between two coverslips coated with 1 mg/mL bovine serum albumin (BSA) solution and allowed to incubate for an additional 20 min prior to lifetime measurements.
Di4 lifetime images were performed on a Leica TCS SP8 system comprising a Leica DMi8 inverted scanning confocal microscope with time-correlated single photon counting (TC-SPC) system and an 80 MHz-pulsed supercontinuum white light laser which allows continuously tunable excitation in the visible range coupled with filter-free detection. Samples were imaged using an HC PL APO CS2 63X/1.20 water objective. Di4 was excited at 488 nm and the emission was collected in the 550-800 nm range. The photon count rate was kept under 0.5 photons per laser pulse by adjusting the laser power, and sufficient frames were cumulatively acquired to obtain at least 100 photons per pixel. The fluorescence decay curves were fit with a bi-exponential re-convolution function adjusted to the instrument response function, and the average intensity-weighted lifetime was calculated for individual vesicles or area of interest and represented in the FLIM images as Di4 lifetime. Data are reported from two independent experiments. Statistical analyses were performed using GraphPad Prism 9.3.0.

Test [2] deals with GPMVs from HeLa cells. Briefly: Assay robustness, SSMD* based on % phase separated GPMVs. The settings on record: for SSMD* based on percentage of phase separated GPMVs: 10 mM (so in the source) vs DMSO, mean±SD, n=3; for SSMD* effect size class: classification per Zhang, 2011. The procedure: GPMVs were prepared as described above and incubated for 2 hours at RT. They were then seeded into a flat bottom, black-walled 96-well plates (Greiner Bio-One, Kremsmunster, Austria) coated with 0.1% bovine serum albumin and pre-loaded in a checkerboard pattern with DMSO, 10 mM TLCK, or 10 mM C6 ceramide (FIG. 12A). GPMVs were imaged using the ImageXpress Micro XL automated imager using a Nikon 40× super plan fluor ELWD objective and analyzed using the software described above to determine the percentage of phase separated vesicles in each well (FIG. 12B). An estimate for robust strictly standardized mean difference (SSMD*) (Zhang, X. D., Genomics 2007, 89 (4), 552-611; Zhang, X. D., et al., J Biomol Screen 2011, 16 (7), 775-85) was then calculated based on the percentage of phase separated vesicles per well as reported in the NBD-DSPE channel according to the following equation: […]
Here, XP and XN represent the medians of the percentage of phase separated vesicles for the positive controls (C6 ceramide or TLCK) and negative control (DMSO), respectively, whereas śP and śN correspond to the absolute deviations from the median for the positive and negative controls. Three independent GPMV preparations were analyzed on separate days to evaluate reproducibility (FIG. 12C).

The subject of test [3] is GPMVs derived from HeLa cells. The test is described as follows: Ten-point dose response of re-ordered hits in GPMVs. The settings on record: for percentage of phase separated vesicles as a function of increasing concentration: freshly made reordered stocks. The procedure: Compounds identified in the initial screens as potential hits were re-ordered and their identity verified by mass spectrometry by the Vanderbilt Chemical Synthesis Core. Ten-point dose response curves using ˜1:2 serial dilutions were generated producing a range of final concentration of 30 nM to […] and backfilled to yield equivalent concentrations of DMSO. Data were collected in duplicate for each concentration. Two independent dose response experiments were performed.

In the case of `CCCCCCCCCCCCC/C=C/[C@@H](O)[C@H](CO)NC(=O)CCCCC` [C6 Ceramide (d18:1/6:0)], in the test on GPMVs from HeLa cells [1], the “phase state of GPMVs in FLIM images” value is “contained a single membrane phase” and the “average Di4 lifetime” value worked out at 2.53±0.11 ns. In addition, in the test with GPMVs from HeLa cells [2], the “SSMD* based on percentage of phase separated GPMVs” value was 8.84±2.65 and the “SSMD* effect size class” value is “extremely strong”. Besides, in test [3], the “effect on phase preference of NBD-DSPE (Pordered) versus concentration” value was “dose-dependent” and the “percentage of phase separated vesicles as a function of increasing concentration” value is “opposite effect”.

On to `Cc1ccc(S(=O)(=O)N[C@@H](CCCCN)C(=O)CCl)cc1` [TLCK hydrochloride, Nα-Tosyl-Lys Chloromethyl Ketone], for which, in the test with GPMVs from HeLa cells [1], the “phase state of GPMVs in FLIM images” value is reported as “mixture of phase separated” and the “average Di4 lifetime” value was 2.43±0.06 ns. In the test with GPMVs from HeLa cells [2], the “SSMD* based on percentage of phase separated GPMVs” value stood at 1.34±0.29 and the “SSMD* effect size class” value is recorded as “moderate”. For the same compound, in test [3], the “effect on phase preference of NBD-DSPE (Pordered) versus concentration” value is reported as “dose-dependent” and the “percentage of phase separated vesicles as a function of increasing concentration” value was “systematically increased”.
